Key:
human DPP1 enzyme [1] = molecular target: T1, human DPP1 enzyme (Homo sapiens (Human), UniProt P53634); assay: Human DPP1 enzyme IC50 assay; type: biochemical; details: recombinant human DPP1, H-Gly-Arg-AMC substrate 400 μM
Description: Test articles were applied to activated human DPP1 enzyme in Assay Buffer (25 mM MES pH 6.0, 50 mM NaCl, 5 mM DTT) in a total reaction volume of 125 μL. 25 μL of compound in Assay Buffer plus 5% DMSO was first added to 50 μL of activated human DPP1 enzyme at a concentration of 1 ng/μL and allowed to pre-incubate for 10 minutes at 37° C. after which 50 μL of 1000 μM H-Gly-Arg-AMC substrate (Bachem; St. Torrance, CA) was added, giving final substrate concentration of 400 μM and a final DMSO concentration of 1%. Substrate cleavage was measured for 90 minutes at 37° C., with fluorescence at Excitation/Emission 350/450 nm measured every 5 minutes. DPP1 concentration was interpolated based on its activity relative to a standard curve of activated human recombinant DPP1 enzyme. IC50 values for each compound were calculated via the XLFit (IDBS Version 5.3.1.3) Add-On to Microsoft Excel using the four parameter fit equation y={A+[(B-A)]/[1+((C/x)^D)]}, which appears as equation number 205 (4 Parameter Logistic Model or Sigmoidal Dose-Response Model) in XLFit. Default constraints were used for each Parameter.

DPP1 in HL-60 cells [2] = molecular target: T2, DPP1 in HL-60 cells (Homo sapiens (Human), UniProt P53634); assay: DPP1 Cell IC50 assay; type: cell-based; details: H-Gly-Phe-AFC substrate, 60 min pre-incubation
T2 sequence (P53634 25-134): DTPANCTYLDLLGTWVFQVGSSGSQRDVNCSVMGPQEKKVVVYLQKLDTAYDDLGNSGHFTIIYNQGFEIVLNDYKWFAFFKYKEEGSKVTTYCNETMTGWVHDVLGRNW
T2 sequence (P53634 231-394): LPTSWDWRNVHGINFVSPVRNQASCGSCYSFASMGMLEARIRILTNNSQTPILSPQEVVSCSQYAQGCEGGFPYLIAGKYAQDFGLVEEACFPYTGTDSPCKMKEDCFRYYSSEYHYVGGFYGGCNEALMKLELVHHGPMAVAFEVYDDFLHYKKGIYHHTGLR
T2 sequence (P53634 395-463): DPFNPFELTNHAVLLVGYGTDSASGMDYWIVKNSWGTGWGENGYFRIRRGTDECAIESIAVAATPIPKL
Description: Media was changed every three to four days and cells were not allowed to exceed 1×10^6 cells per mL. Prior to assay, cells were collected by centrifugation at 500 rcf for 3 minutes, resuspended in PBS and counted. Cells were diluted in PBS to a concentration of 5×10^5 live cells per mL and transferred to black 96-well plates for assay, 60 μL per well. Test articles were diluted in PBS plus 0.5% DMSO, and 20 μL was added to each assay well. Compound was allowed to pre-incubate with cells with gentle shaking at 100 rpm for 60 minutes at 37° C. in a cell culture incubator maintained at 5% CO2, after which 20 μL of 500 μM H-Gly-Phe-AFC substrate (MP Biomedicals; Solon, OH) was added to each well. Plates were returned to the incubator with shaking at 100 rpm for 30 minutes, after which fluorescence was measured at Excitation/Emission 400/505 nm. % Inhibition was calculated from RFU values compared to control cell wells that received only PBS plus 0.5% DMSO. IC50 values for each compound were calculated via the XLFit (IDBS Version 5.3.1.3) Add-On to Microsoft Excel using the four parameter fit equation y=(A+((B-A)/(1+((C/x)^D)))), which appears as equation number 205 (4 Parameter Logistic Model or Sigmoidal Dose-Response Model) in XLFit.

DPP1 in HL-60 cells [3] = molecular target: T2, DPP1 in HL-60 cells; assay: DPP1 cell single-point percent inhibition testing (HL-60 cells, H-Gly-Phe-AFC substrate); type: cell-based; details: read-out: DPP1 cell % inhibition @ 5 nM, 5 nM compound, 100 μM H-Gly-Phe-AFC, 60 min pre-incubation at 37° C.
human DPP1 enzyme [4] = molecular target: T1, human DPP1 enzyme; assay: Human DPP1 enzyme single-point percent inhibition testing (HL-60 lysate, H-Gly-Arg-AMC substrate); type: biochemical; details: read-out: human DPP1 enzyme % inhibition @ 10 nM, 10 nM compound, 400 μM H-Gly-Arg-AMC, 10 min pre-incubation at 37° C.

T1 sequence (P53634 25-134): as the sequence (P53634 25-134) above
T1 sequence (P53634 231-394): as the sequence (P53634 231-394) above
T1 sequence (P53634 395-463): as the sequence (P53634 395-463) above

SMILES | IC50 (human DPP1 enzyme [1]) [nM] | IC50 (DPP1 in HL-60 cells [2]) [nM] | inhibition at 0.005 µM (DPP1 in HL-60 cells [3]) [%] | inhibition at 0.01 µM (human DPP1 enzyme [4]) [%]
CN(C)C[C@H](O)C(=O)N[C@H](C#N)Cc1ccc(-c2ccc3cnn(C4CCN(C)CC4)c3c2)cc1F [Compound 285, (S)—N—((S)-1-cyano-2-(2-fluoro-4-(1-(1-methylpiperidin-4-yl)-1H-indazol-6-yl)phenyl)ethyl)-3-(dimethylamino)-2-hydroxypropanamide] | 5 to 15 | ≥ 2.5 |  | 
CO[C@@H](CN(C)C)C(=O)N[C@H](C#N)Cc1ccc(-c2ccc3cnn(C4CCN(C)CC4)c3c2)cc1F [Compound 286, (S)—N—((S)-1-cyano-2-(2-fluoro-4-(1-(1-methylpiperidin-4-yl)-1H-indazol-6-yl)phenyl)ethyl)-3-(dimethylamino)-2-methoxypropanamide] | 5 to 15 | ≥ 2.5 |  | 
COCCN(C)CCn1c(=O)oc2ccc(-c3ccc(C[C@@H](C#N)NC(=O)[C@@](C)(N)C4CCCC4)cc3)cc21 [Compound 258A, (2S)-2-amino-N-[(1S)-1-cyano-2-[4-(3-{2-[(2-methoxyethyl)(methyl)amino]ethyl}-2-oxo-1,3-benzoxazol-5-yl)phenyl]ethyl]-2-cyclopentylpropanamide] | ≥ 15 | ≥ 2.5 |  | 
Cn1c(=O)oc2ccc(-c3ccc(C[C@@H](C#N)NC(=O)C(N)Cc4cccnc4O)cc3)cc21 (stereo partly drawn) [Compound 199, 2-amino-N-[(1S)-1-cyano-2-[4-(3-methyl-2-oxo-1,3-benzoxazol-5-yl)phenyl]ethyl]-3-(2-hydroxypyridin-3-yl)propanamide] | ≥ 15 | ≥ 2.5 |  | 
Cn1c(=O)oc2ccc(-c3ccc(C[C@@H](C#N)NC(=O)C(N)Cc4cncs4)cc3)cc21 (stereo partly drawn) [Compound 201, 2-amino-N-[(1S)-1-cyano-2-[4-(3-methyl-2-oxo-1,3-benzoxazol-5-yl)phenyl]ethyl]-3-(1,3-thiazol-5-yl)propanamide] | ≥ 15 | ≥ 2.5 |  | 
Cn1c(=O)oc2ccc(-c3ccc(C[C@@H](C#N)NC(=O)[C@@H](N)[C@H]4CCc5ccccc54)cc3)cc21 [Compound 207, (S)-2-amino-N—((S)-1-cyano-2-(4-(3-methyl-2-oxo-2,3-dihydrobenzo[d]oxazol-5-yl)phenyl)ethyl)-2-((S)-2,3-dihydro-1H-inden-1-yl)acetamide] | ≥ 15 | ≥ 2.5 |  | 
CN(C)C[C@H](O)C(=O)N[C@H](C#N)Cc1ccc(-c2ccc3c(c2)C2(CCCN(C)C2)C(=O)N3C)cc1 (stereo partly drawn) [Compound 145, (2S)—N-[(1S)-1-cyano-2-(4-{1,1′-dimethyl-2-oxospiro[indole-3,3′-piperidin]-5-yl}phenyl)ethyl]-3-(dimethylamino)-2-hydroxypropanamide] | ≥ 15 | 1 to 2.5 |  | 
CCCCOCCn1c(=O)oc2ccc(-c3ccc(C[C@@H](C#N)NC(=O)[C@@H](O)CN(C)C)c(F)c3)cc21 [Compound 146, (2S)—N-[(1S)-2-{4-[3-(2-butoxyethyl)-2-oxo-1,3-benzoxazol-5-yl]-2-fluorophenyl}-1-cyanoethyl]-3-(dimethylamino)-2-hydroxypropanamide] | 5 to 15 | ≥ 2.5 |  | 
Cn1c(=O)oc2ccc(-c3ccc(C[C@@H](C#N)NC(=O)[C@@H](N)[C@@H]4CCc5ccccc54)cc3)cc21 [Compound 206, (S)-2-amino-N—((S)-1-cyano-2-(4-(3-methyl-2-oxo-2,3-dihydrobenzo[d]oxazol-5-yl)phenyl)ethyl)-2-((R)-2,3-dihydro-1H-inden-1-yl)acetamide] | ≥ 15 | ≥ 2.5 |  | 
CN(C)C[C@H](O)C(=O)N[C@H](C#N)Cc1ccc(-c2ccc3c(c2)C2(CCN(C4COC4)CC2)OC3)cc1 [Compound 144, (2S)—N-[(1S)-1-cyano-2-{4-[1′-(oxetan-3-yl)-3H-spiro[2-benzofuran-1,4′-piperidin]-6-yl]phenyl}ethyl]-3-(dimethylamino)-2-hydroxypropanamide] | ≥ 15 | ≥ 2.5 |  | 
Cn1c(=O)oc2ccc(-c3ccc(C[C@@H](C#N)NC(=O)C(N)Cc4ncsc4Cl)cc3)cc21 (stereo partly drawn) [Compound 218, 2-amino-3-(5-chloro-1,3-thiazol-4-yl)-N-[(1S)-1-cyano-2-[4-(3-methyl-2-oxo-1,3-benzoxazol-5-yl)phenyl]ethyl]propanamide] | 5 to 15 | ≥ 2.5 |  | 
CCN1C(=O)Cc2ccc(-c3ccc(C[C@@H](C#N)NC(=O)[C@@](C)(N)C4CCCC4)c(F)c3)cc21 [Compound 264A, (2S)-2-amino-N-[(1S)-1-cyano-2-[4-(1-ethyl-2-oxo-3H-indol-6-yl)-2-fluorophenyl]ethyl]-2-cyclopentylpropanamide] | ≥ 15 | ≥ 2.5 |  | 
CN(C)C[C@H](O)C(=O)N[C@H](C#N)Cc1ccc(-c2ccc3nnn(C)c3c2)cc1F [Compound 141, (2S)—N-[(1S)-1-cyano-2-[2-fluoro-4-(3-methyl-1,2,3-benzotriazol-5-yl)phenyl]ethyl]-3-(dimethylamino)-2-hydroxypropanamide] | 5 to 15 | 1 to 2.5 |  | 
Cn1c(=O)oc2ccc(-c3ccc(C[C@@H](C#N)NC(=O)[C@H](N)Cc4c[nH]cn4)cc3)cc21 [Compound 215, (2R)-2-amino-N-[(1S)-1-cyano-2-[4-(3-methyl-2-oxo-1,3-benzoxazol-5-yl)phenyl]ethyl]-3-(1H-imidazol-4-yl)propanamide] | ≥ 15 | ≥ 2.5 |  | 
Cn1c(=O)oc2ccc(-c3ccc(C[C@@H](C#N)NC(=O)CC(N)C4CCCCC4)cc3)cc21 (stereo partly shown) [Compound 188] | ≥ 15 | ≥ 2.5 |  | 
CO[C@@H](CN)C(=O)N[C@H](C#N)Cc1ccc(-c2ccc3oc(=O)n(C)c3c2)cc1 [Compound 103, (2S)-3-amino-N-[(1S)-1-cyano-2-[4-(3-methyl-2-oxo-1,3-benzoxazol-5-yl)phenyl]ethyl]-2-methoxypropanamide] | ≥ 15 | ≥ 2.5 |  | 
CN(C)C[C@H](O)C(=O)N[C@H](C#N)Cc1ccc(-c2ccc3oc(=O)n(CCN4CCOCC4)c3c2)cc1F [Compound 142, (2S)—N-[(1S)-1-cyano-2-(2-fluoro-4-{3-[2-(morpholin-4-yl)ethyl]-2-oxo-1,3-benzoxazol-5-yl}phenyl)ethyl]-3-(dimethylamino)-2-hydroxypropanamide] | 5 to 15 | ≥ 2.5 |  | 
Cn1c(=O)oc2ccc(-c3ccc(C[C@@H](C#N)NC(=O)[C@H](N)[C@H]4CCCO4)cc3)cc21 [Compound 211, (2R)-2-amino-N-[(1S)-1-cyano-2-[4-(3-methyl-2-oxo-1,3-benzoxazol-5-yl)phenyl]ethyl]-2-[(2R)-oxolan-2-yl]acetamide] | ≥ 15 | ≥ 2.5 |  | 
Cn1c(=O)oc2ccc(-c3ccc(C[C@@H](C#N)NC(=O)CC(N)C4CCCCC4)cc3)cc21 (stereo partly drawn) [Compound 190, 3-amino-N-[(1S)-1-cyano-2-[4-(3-methyl-2-oxo-2,3-dihydro-1,3-benzoxazol-5-yl)phenyl]ethyl]-3-cyclohexylpropanamide] |  | ≥ 2.5 |  | 
CO[C@@H](CN(C)C)C(=O)N[C@H](C#N)Cc1ccc(-c2ccc3c(c2)C2(CC3)CCN(C)CC2)cc1 [Compound 300] |  |  | ≤ 76.5 | 40 to 66.7
CN(C)C[C@H](O)C(=O)N[C@H](C#N)Cc1ccc(-c2ccc3cnn(C)c3c2)cc1 [Compound 370] |  |  | ≤ 76.5 | ≤ 40
CO[C@@H](CN(C)C)C(=O)NC(C#N)Cc1cc2c(cc1F)-c1cc3c(cc1CO2)oc(=O)n3C (stereo partly shown) [Compound 297] |  |  | ≤ 76.5 | ≤ 40
CO[C@@H](CN(C)C)C(=O)N[C@H](C#N)Cc1cc2c(cc1F)-c1ccc(F)cc1CO2 [Compound 336] |  |  | ≤ 76.5 | ≤ 40
CN(C)C[C@H](O)C(=O)N[C@H](C#N)Cc1ccc(-c2ccc3c(c2)C2(CCN(C4COC4)CC2)OC3)cc1 [Compound 350] |  |  | ≤ 76.5 | ≤ 40
CCN1C(=O)Cc2ccc(-c3ccc(C[C@@H](C#N)NC(=O)[C@@](C)(O)CN(C)C)c(F)c3)cc21 [Compound 402] |  |  | 76.5 to 93.9 | ≥ 66.7
